Results taken from ChEMBL document CHEMBL1153937, “Synthesis and antiviral evaluation of thieno[3,4-d]pyrimidine C-nucleoside analogues of 2',3'-dideoxy- and 2',3'-dideoxy-2',3'-didehydro-adenosine and -inosine” (Bioorg Med Chem, 2009).
Calls of active or inactive are those of the source. The calls are words filed in the database; no cut-off is given here.

Legend:
West Nile virus = assay: Antiviral activity against West Nile virus at 75 uM; assay type: functional, organism-based
Dengue virus = assay: Antiviral activity against Dengue virus at 75 uM; assay type: functional, organism-based
Yellow fever virus = assay: Antiviral activity against Yellow fever virus at 75 uM; assay type: functional, organism-based
[1] = system: Human immunodeficiency virus 1; assay: Antiviral activity against HIV1 BH10 in human MT4 cells assessed as inhibition of virus-induced cytopathogenicity after 4 days by MTS method; assay type: functional, organism-based, Human immunodeficiency virus type 1 BH10; details: Human immunodeficiency virus 1, MT4, 96 h
[2] = Cytotoxicity against human MT4 cells by MTS method; assay type: cell-based
CCRF S-180 = assay: Growth inhibition of mouse S180 cells; assay type: functional, cell-based
HL-60 = assay: Growth inhibition of human HL60 cells; assay type: functional, cell-based
L1210 = assay: Growth inhibition of mouse L1210 cells; assay type: functional, cell-based

OC[C@@H]1CC[C@H](c2scc3c(O)ncnc23)O1
Activity (West Nile virus): inactive
Activity (Dengue virus): inactive
Activity (Yellow fever virus): inactive
EC50 [1]: > 100 µM
CC50 [2]: > 100 µM

OC[C@@H]1C=C[C@H](c2scc3c(O)ncnc23)O1
Activity (West Nile virus): inactive
Activity (Dengue virus): inactive
Activity (Yellow fever virus): inactive
EC50 [1]: > 100 µM
CC50 [2]: > 100 µM

Nc1ncnc2c([C@H]3C=C[C@@H](CO)O3)scc12
Activity (West Nile virus): inactive
Activity (Dengue virus): inactive
Activity (Yellow fever virus): inactive
EC50 [1]: > 7.3 µM
CC50 [2]: 7.3 µM

O=c1[nH]cnc2c([C@@H]3O[C@H](CO)[C@@H](O)[C@H]3O)scc12
Activity (West Nile virus): inactive
Activity (Dengue virus): inactive
Activity (Yellow fever virus): inactive
EC50 [1]: > 100 µM
CC50 [2]: > 100 µM

Cc1cn([C@H]2C[C@H](N=[N+]=[N-])[C@@H](CO)O2)c(=O)[nH]c1=O [ZIDOVUDINE]
EC50 [1]: 0.009 µM
CC50 [2]: 61 µM

OC[C@H]1O[C@@H](c2scc3c(=S)[nH]cnc23)[C@H](O)[C@@H]1O
IC50 (CCRF S-180): 29.1 µM
IC50 (HL-60): 8.17 µM
Activity (West Nile virus): inactive
Activity (Dengue virus): inactive
Activity (Yellow fever virus): inactive
IC50 (L1210): 17.6 µM
EC50 [1]: > 2.9 µM
CC50 [2]: 2.9 µM

CSc1ncnc2c([C@H]3C=C[C@@H](CO)O3)scc12
Activity (West Nile virus): inactive
Activity (Dengue virus): inactive
Activity (Yellow fever virus): inactive
EC50 [1]: > 70 µM
CC50 [2]: 70 µM

Nc1ncnc2c([C@H]3CC[C@@H](CO)O3)scc12
Activity (West Nile virus): inactive
Activity (Dengue virus): inactive
Activity (Yellow fever virus): inactive
EC50 [1]: > 75 µM
CC50 [2]: > 75 µM
